Results reported in ChEMBL document CHEMBL1201862, “PubChem BioAssay data set” (2004).
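Five concentrations, 48 hours, 96-well plates. GI50 = concentration required for 50% inhibition of growth.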 Activity calls are given as the source filed them. Rule as the data show it: active = GI50 up to about 1.1 µM and inactive = higher.

Tests used:
Assay in all cases: growth of human tumour cells (NCI), 48 h
[1] = test system: LOX IMVI
[2] = test system: PC-3
[3] = test system: ACHN
[4] = test system: MDA-N
[5] = test system: NCI-H522
[6] = test system: OVCAR-4
[7] = test system: BT-549
[8] = test system: HL-60
[9] = test system: CCRF-CEM
[10] = test system: SK-MEL-5
[11] = test system: SK-MEL-2
[12] = test system: SK-MEL-28
[13] = test system: UACC-257
[14] = test system: A498
[15] = test system: HCC 2998
[16] = test system: HT-29
[17] = test system: DU-145
[18] = test system: T47D
[19] = test system: MDA-MB-231
[20] = test system: NCI-H23
[21] = test system: SW-620
[22] = test system: IGROV-1
[23] = test system: Malme-3M
[24] = test system: RPMI-8226
[25] = test system: HOP-62
[26] = test system: MDA-MB-435
[27] = test system: UACC-62
[28] = test system: 786-0
[29] = test system: SR
[30] = test system: MOLT-4
[31] = test system: NCI-H226
[32] = test system: UO-31
[33] = test system: M14
[34] = test system: NCI-H460
[35] = test system: OVCAR-3
[36] = test system: HCT-15
[37] = test system: SN12C
[38] = test system: TK-10
[39] = test system: SNB-19
[40] = test system: U-251
[41] = test system: HCT-116
[42] = test system: OVCAR-8
[43] = test system: SNB-75
[44] = test system: K562
[45] = test system: OVCAR-5
[46] = test system: A549
[47] = test system: SF-268
[48] = test system: EKVX
[49] = test system: SF-295
[50] = test system: MCF7
[51] = test system: KM12
[52] = test system: SK-OV-3
[53] = test system: CAKI-1
[54] = test system: SF-539
[55] = test system: HOP-92
[56] = test system: RXF 393
[57] = test system: COLO 205

In the case of `Cc1c(Cl)cccc1/N=N/C(=O)NNc1cccc(Cl)c1C`, the GI50 [1] is reported as 21.3 µM (inactive), the GI50 [2] is reported as 13.3 µM (inactive) and the GI50 [3] is reported as 20.1 µM (inactive). For the same molecule, the GI50 [4] was 17.2 µM (inactive), the GI50 [5] was 23.1 µM (inactive) and the GI50 [6] was 12 µM (inactive). The GI50 [7] was 14.1 µM (inactive), the GI50 [8] was 17.8 µM (inactive) and the GI50 [9] was 16.9 µM (inactive). For the same molecule, the GI50 [10] was 15.3 µM (inactive), the GI50 [11] was 13.6 µM (inactive) and the GI50 [12] was 16.6 µM (inactive). The GI50 [13] was 23.1 µM (inactive), the GI50 [14] was 14.4 µM (inactive) and the GI50 [15] was 17.3 µM (inactive). The GI50 [16] was 20.4 µM (inactive), the GI50 [17] was 14.4 µM (inactive) and the GI50 [18] was 10.7 µM (inactive). For the same molecule, the GI50 [19] was 17.8 µM (inactive), the GI50 [20] was 16.7 µM (inactive) and the GI50 [21] was 17.1 µM (inactive). The GI50 [22] was 6.37 µM (inactive), the GI50 [23] was 16.1 µM (inactive) and the GI50 [24] was 25.5 µM (inactive). For the same molecule, the GI50 [25] was 12.8 µM (inactive), the GI50 [26] was 18.2 µM (inactive) and the GI50 [27] was 11.9 µM (inactive). The GI50 [28] was 23.1 µM (inactive), the GI50 [29] was 21.3 µM (inactive) and the GI50 [30] was 13.3 µM (inactive). For the same molecule, the GI50 [31] was 15.8 µM (inactive), the GI50 [32] was 12.5 µM (inactive) and the GI50 [33] was 19.2 µM (inactive). For the same molecule, the GI50 [34] was 16.6 µM (inactive), the GI50 [35] was 17.6 µM (inactive) and the GI50 [36] was 14.3 µM. For the same molecule, the GI50 [37] was 17.3 µM (inactive), the GI50 [38] was 15.8 µM (inactive) and the GI50 [39] was 17.9 µM (inactive). The GI50 [40] was 16.2 µM (inactive), the GI50 [41] was 15.3 µM (inactive) and the GI50 [42] was 13.5 µM (inactive). The GI50 [43] was 18 µM (inactive), the GI50 [44] was 16.8 µM (inactive) and the GI50 [45] was 14.1 µM (inactive). The GI50 [46] was 16.9 µM (inactive) and the GI50 [47] was 16.9 µM (inactive).
`Cn1c(=N)n[n+]([O-])c2ccccc21` was tested, and the GI50 [1] was 2.59 µM (inactive), the GI50 [2] was 6.28 µM (inactive) and the GI50 [3] was 5.48 µM (inactive). For the same molecule, the GI50 [48] was 9.93 µM (inactive), the GI50 [4] was 1.66 µM (inactive) and the GI50 [5] was 2.86 µM (inactive). For the same molecule, the GI50 [6] was 1.94 µM (inactive), the GI50 [7] was 2.01 µM (inactive) and the GI50 [49] was 3.54 µM (inactive). For the same molecule, the GI50 [8] was 2.17 µM (inactive), the GI50 [9] was 4.24 µM (inactive) and the GI50 [10] was 1.59 µM (inactive). For the same molecule, the GI50 [11] was 3.47 µM (inactive), the GI50 [13] was 1.94 µM (inactive) and the GI50 [15] was 20.6 µM (inactive). For the same molecule, the GI50 [16] was 3.1 µM (inactive), the GI50 [17] was 2.28 µM (inactive) and the GI50 [50] was 1.8 µM (inactive). The GI50 [51] was 19 µM (inactive), the GI50 [19] was 11.7 µM (inactive) and the GI50 [20] was 2.16 µM (inactive). For the same molecule, the GI50 [21] was 2.74 µM (inactive), the GI50 [22] was 3.46 µM (inactive) and the GI50 [23] was 2.34 µM (inactive). The GI50 [25] was 2.52 µM (inactive), the GI50 [52] was 22.9 µM (inactive) and the GI50 [26] was 0.877 µM (active). For the same molecule, the GI50 [27] was 1.75 µM (inactive), the GI50 [28] was 8.2 µM (inactive) and the GI50 [53] was 2.31 µM (inactive). For the same molecule, the GI50 [30] was 1.87 µM (inactive), the GI50 [54] was 1.5 µM (inactive) and the GI50 [31] was 13.4 µM (inactive). For the same molecule, the GI50 [32] was 5.16 µM (inactive), the GI50 [33] was 1.95 µM (inactive) and the GI50 [55] was 23.7 µM (inactive). The GI50 [56] was 19.6 µM (inactive), the GI50 [35] was 1.55 µM (inactive) and the GI50 [37] was 2.13 µM (inactive). For the same molecule, the GI50 [38] was 27.2 µM (inactive), the GI50 [40] was 7.69 µM (inactive) and the GI50 [41] was 4.14 µM (inactive). For the same molecule, the GI50 [42] was 13.2 µM (inactive), the GI50 [57] was 2.33 µM (inactive) and the GI50 [43] was 3.78 µM (inactive). For the same molecule, the GI50 [44] was 1.36 µM (inactive), the GI50 [45] was 2.51 µM (inactive) and the GI50 [46] was 11.7 µM (inactive).
